The text below walks through data of patent publication US8242058B2, “Reagents and methods for appending functional groups to proteins” (Wisconsin Alumni Research Foundation, priority 2006, dated 2012).

Series [1] is described as follows: Immobilization on phosphinothioester-displaying chips by Staudinger ligation, immunofluorescence detection. To be noted: 10 μM in 5% DMF/water, r.t. The procedure: Preparation of Gold Chips (Chang). Preparation of Phosphinothioester-displaying SAMs of Alkane Thiols on Gold Chips. Alkane thiol solutions were prepared by dissolving HS—(CH2)11—(O—CH2—CH2)6—O—CH2—COOH and HS—(CH2)11—(O—CH2—CH2)3—OH in ethanol to a final concentration of 0.25 mM each. Gold chips were cleaned under a stream of Ar(g) and immersed in the alkane thiol solution for at least 18 h at r.t. After rinsing thoroughly with ethanol and drying under a stream of Ar(g), the chips were overlaid with an aqueous solution containing N-hydroxysuccinimide (50 mM) and 1-ethyl-3-(3-dimethylaminopropyl)-carbodiimide (200 mM) for 7 min to generate succinimidyl ester-displaying chips. Phosphinomethanethiol (PPh2CH2SH) was synthesized as described earlier and was dissolved in anhydrous DMF to a concentration of 100 mM. N,N-diisopropylethylamine (DIPEA) was added to a concentration of 120 mM. […]
Detection of Immobilized RNase A. A chip displaying immobilized RNase A was overlaid with anti-RNase A rabbit primary antibody (100 μg/mL in sodium phosphate buffer (25 mM) at pH 7.5) for 30 min at r.t. […] Finally, the chip was rinsed with sodium phosphate buffer (25 mM) at pH 7.5 (2×20 mL) and incubated in the same buffer for 15 min and scanned with a Genomic Solutions® GeneTac UC4×4 Fluorescence Scanner using a gain of 50.

Series [2] deals with 6-carboxyfluorescein-dArU(dA)2-6-carboxytetramethylrhodamine. In words: RNase A activity assay on immobilized RNase A. Format: biochemical. The settings on record: chip overlaid with 10 μM protein, pH 6.0. The procedure: RNase A activity assay on immobilized RNase A. A phosphinothioester chip was overlaid with azido-RNase A (10 μM in 5% DMF/H2O) for 15 min in Ar(g) atmosphere in an AtmosBag™ to immobilize RNase A via Staudinger ligation. The chip was rinsed with sodium phosphate buffer (25 mM) at pH 7.5 (2×20 mL) and then introduced into a vial containing 2-(N-Morpholino)ethanesulfonic acid buffer (0.1 M) at pH 6.0 (22 mL, containing 0.1 M NaCl). A fluorogenic substrate of RNase A, 6-carboxyfluorescein-dArU(dA)2-6-carboxytetramethylrhodamine (10 μl of a 40 μM solution), was introduced into the vial. The vial was placed on a shaker and 2 mL aliquots were withdrawn at various time intervals and the fluorescence measured (λex=493 nm, λem=515 nm). The fluorescence intensity was plotted against time. A phosphinothioester chip was overlaid with wt-RNase A (10 μM in 5% DMF/H2O) and rinsed with sodium phosphate buffer (25 mM) at pH 7.5 (2×20 mL) and a similar assay was performed. As a negative control, a similar assay was performed on a phosphinothioester chip which was not overlaid with RNase A. The percentage of the fluorescent substrate cleaved at various time intervals were subtracted from the corresponding values for the negative control to generate the graph in FIG. 8.

For series [3], the target named is T1, ribonuclease inhibitor protein (RI) (Homo sapiens, UniProt P13489).
T1 sequence (P13489 2-461 limits assumed): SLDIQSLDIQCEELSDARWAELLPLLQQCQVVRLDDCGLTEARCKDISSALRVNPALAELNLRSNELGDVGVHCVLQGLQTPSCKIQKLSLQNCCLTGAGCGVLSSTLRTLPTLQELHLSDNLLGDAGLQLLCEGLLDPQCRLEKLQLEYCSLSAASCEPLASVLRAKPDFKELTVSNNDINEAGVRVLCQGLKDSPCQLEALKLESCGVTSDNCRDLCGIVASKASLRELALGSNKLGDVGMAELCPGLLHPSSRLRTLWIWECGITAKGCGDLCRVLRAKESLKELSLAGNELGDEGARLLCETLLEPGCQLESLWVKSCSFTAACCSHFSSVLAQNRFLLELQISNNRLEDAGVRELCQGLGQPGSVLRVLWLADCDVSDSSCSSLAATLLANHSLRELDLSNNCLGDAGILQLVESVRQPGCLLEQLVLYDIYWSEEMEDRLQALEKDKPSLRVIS
Nature of the series: RI binding to immobilized RNase A (immunoassay, ellipsometry). The settings on record: RI 10 μM, 10 min at 4° C. The procedure:
RI binding to immobilized RNase A. Azido-RNase A (1 μL, 10 μM in 5% DMF/water) was spotted on phosphinothioester-displaying SAMs on a gold chip for 15 minutes at r.t. in an AtmosBag™ filled with Ar(g). The chip was taken out of the bag and rinsed with sodium phosphate buffer (25 mM) at pH 7.5 (2×20 mL) and incubated in the same buffer for 30 min to remove non-specifically bound RNase A. RI (10 μM in sodium phosphate buffer (25 mM) at pH 7.5 containing 10 mM DTT) was overlaid on the chip for 10 min at 4° C. The chip was then rinsed with sodium phosphate buffer (25 mM) at pH 7.5 containing 10 mM DTT (2×20 mL) and incubated in the same buffer for 15 min.
Detection of RI bound to immobilized RNase A. (i) Immunoassay: After RI binding, the chip was overlaid with bovine serum albumin (2.0 mg/mL in sodium phosphate buffer (25 mM) at pH 7.5) for 15 min. The chip was rinsed with sodium phosphate buffer (25 mM) at pH 7.5 (2×20 mL) and subsequently incubated with chicken primary antibody to RI (12.5 μg/mL in sodium phosphate buffer (25 mM) at pH 7.5) for 15 min. […] The chip was scanned with a Genomic Solutions® GeneTac UC4×4 Fluorescence Scanner using a gain of 50. […]

“Met(−1)RNase A-Gly-NHNHCH2C(O)NHCH2CH2N3 [azido-RNase A]”: the “time at which fluorescence signal of immobilized protein was detected” value in series [1] is at most 1 min. Also, in series [2], the “enzymatic activity of chip incubated with the protein (increase of fluorescence intensity)” value is reported as “much faster rate”. In addition, in series [3], the “RI binding to chip incubated with the protein” value was “bound RI”.
